SMILES strings stand for the structures. Like-named read-outs stand apart in the source and are kept apart here.

Data on one molecule can be found in US8440212B2, “Compositions for treating water systems” (Arch Chemicals, Inc., priority 2009, dated 2013).

In assay [1] the test system is wild mustard algae (Miami strain). As to the method: (§1) Efficacy of zinc ions (in the form of zinc sulfate) was evaluated using two strains of very difficult to control wild mustard algae, both isolated from a pool treated with BAQUACIL (Arch Chemicals, Norwalk, CT). All experiments were conducted in 125 ml Erlenmeyer flasks that contained 50 ml of Jaworski's medium. To increase the surface area in the flasks each flask also contained 50 6 mm glass beads. The tests flasks were illuminated using a combination incandescent and fluorescent plant grow lights with 16 hours of illumination and 8 hours of darkness. Temperature was maintained at 80° F+/−5° F. The flasks were grown without agitation or additional aeration. One ml of a pooled mid-log culture was used to used to inoculate the test flasks to an initial optical density of 95%T. This yields an initial concentration of approximately […] algae per ml. Efficacy was evaluated in the presence and absence of a sub-optimal concentration of a primary sanitizer (PHMB). Growth was measured optically at 450 nm using a 1 inch cell in a Spectronic 20. All experiments used five replicates. The results of the optical readings were arithmetically averaged. […] In FIGS. 1 and 2, PHMB concentrations were held at 4 PPM, and zinc ion concentration was varied from 0 to 3 PPM. Growth over time was measured and plotted.

Assay [2] deals with wild mustard algae (Schwab strain). As to the method:
as §1

The subject of assay [3] is Chlorella pyrenoidosa, Pleurochloris pyrenoidosa and Phormidium sp. Particulars: FIG. 4.
Experimental: This study was conducted in test pools without bathers. The water was initially balanced and proper water balance was maintained throughout the study. Each pool was inoculated weekly with mixed bacterial, fungal and algal cultures. The algae inoculations were prepared using the methodology below.
Algal cultures were maintained in 5 liter carboys at 22° C. under fluorescent light with a 12 hour on/off cycle. Air is continuously bubbled through the medium. Stock cultures of Chlorella pyrenoidosa and Pleurochloris pyrenoidosa are maintained in Kratz & Meyers medium and Phormidium sp., a filamentous blue-green alga, is maintained in BG-11.
150 milliliters of a combined inoculum containing equal amounts of each strain is added weekly per 10,000 gallons of water. Typically the cultures contain approximately 2×10^7 cells per milliliter; therefore approximately 2×10^9 cells are added per pool each week. However, if time allows, determine the actual number of algae in each sample by heamocytometry, using a Neubauer heamocytometer. Each pool was chemically treated using the procedure below.
A. Test Pool 7: Baquacil CDX +Didecyl dimethyl ammonium chloride (DDAC) • 1. […]
Observations were taken on a business daily basis and the pool was scored using the following 0-4 scale. • 0=no trace of algae • 1=trace amounts • 2=small patches • 3=large patches • 4=sides and bottom more than 25% covered by algae
Where [4] appears, read: 2 or 3 ppm zinc ions, PHMB 4 PPM.

Consider `O=S(=O)([O-])[O-].[Zn+2]` [zinc sulfate], for which the “reduction of algal growth” value in assay [1] (setting [4]) and in assay [2] (setting [4]) was “approximately 50%” throughout. The algaestatic activity result is reported as “moderate algaestatic activity” in assay [1] (FIG. 2, PHMB held at 4 PPM, zinc ion 0 to 3 PPM, growth measured optically at 450 nm) and “moderate algaestatic activity” in assay [2] (FIG. 1, PHMB held at 4 PPM, zinc ion 0 to 3 PPM, growth measured optically at 450 nm). Moreover, the “algaestatic performance (visual algae score 0-4)” value in assay [3] (Test Pool 7: Baquacil CDX + DDAC, single 4.2 ppm dosage of zinc sulfate (1.5 PPM zinc) after 102 days) is on record as “improved algaestatic performance”; in assay [3] (Test Pool 8: Baquacil CDX control, 4.2 ppm dosages of zinc sulfate (1.5 PPM zinc) after 33, 40 and 61 days), “improved algaestatic performance”.
